Source: the NIST ThermoML archive (doi:10.1021/je060355j)
± gives the expanded uncertainty stated by the source.

What was measured:
[1] = excess molar enthalpy (molar enthalpy of mixing); xn = mol fraction of the nth substance listed; settings: 101.32 kPa, Liquid
[2] = xn = mol fraction of the nth substance listed; settings: 101.32 kPa, Liquid

CCCCOC=O [butyl methanoate] + CCCCCC
excess molar enthalpy ([1]; 291.15 K, x1 = 0.0865): 0.0769 ± 0.00174 kcal/mol | excess molar enthalpy ([1]; 291.15 K, x1 = 0.1588): 0.134 ± 0.00263 kcal/mol | excess molar enthalpy ([1]; 291.15 K, x1 = 0.2303): 0.183 ± 0.00335 kcal/mol | excess molar enthalpy ([1]; 291.15 K, x1 = 0.2973): 0.216 ± 0.00382 kcal/mol | excess molar enthalpy ([1]; 291.15 K, x1 = 0.3551): 0.237 ± 0.00406 kcal/mol | excess molar enthalpy ([1]; 291.15 K, x1 = 0.4081): 0.248 ± 0.0043 kcal/mol | excess molar enthalpy ([1]; 291.15 K, x1 = 0.454): 0.253 ± 0.0043 kcal/mol | excess molar enthalpy ([1]; 291.15 K, x1 = 0.5114): 0.251 ± 0.0043 kcal/mol | excess molar enthalpy ([1]; 291.15 K, x1 = 0.5606): 0.243 ± 0.00406 kcal/mol | excess molar enthalpy ([1]; 291.15 K, x1 = 0.6177): 0.228 ± 0.00382 kcal/mol | excess molar enthalpy ([1]; 291.15 K, x1 = 0.6775): 0.205 ± 0.00359 kcal/mol | excess molar enthalpy ([1]; 291.15 K, x1 = 0.7406): 0.176 ± 0.00311 kcal/mol | excess molar enthalpy ([1]; 291.15 K, x1 = 0.8067): 0.14 ± 0.00263 kcal/mol | excess molar enthalpy ([1]; 291.15 K, x1 = 0.873): 0.0959 ± 0.00198 kcal/mol | excess molar enthalpy ([1]; 291.15 K, x1 = 0.94): 0.0509 ± 0.00134 kcal/mol | excess molar enthalpy ([1]; 318.15 K, x1 = 0.0808): 0.105 ± 0.00215 kcal/mol | excess molar enthalpy ([1]; 318.15 K, x1 = 0.1626): 0.168 ± 0.00311 kcal/mol | excess molar enthalpy ([1]; 318.15 K, x1 = 0.2415): 0.217 ± 0.00382 kcal/mol | excess molar enthalpy ([1]; 318.15 K, x1 = 0.311): 0.248 ± 0.0043 kcal/mol | excess molar enthalpy ([1]; 318.15 K, x1 = 0.3823): 0.268 ± 0.00454 kcal/mol | excess molar enthalpy ([1]; 318.15 K, x1 = 0.4464): 0.275 ± 0.00454 kcal/mol | excess molar enthalpy ([1]; 318.15 K, x1 = 0.4882): 0.274 ± 0.00454 kcal/mol | excess molar enthalpy ([1]; 318.15 K, x1 = 0.5104): 0.275 ± 0.00454 kcal/mol | excess molar enthalpy ([1]; 318.15 K, x1 = 0.5661): 0.266 ± 0.00454 kcal/mol | excess molar enthalpy ([1]; 318.15 K, x1 = 0.63): 0.25 ± 0.0043 kcal/mol | excess molar enthalpy ([1]; 318.15 K, x1 = 0.7075): 0.219 ± 0.00382 kcal/mol | excess molar enthalpy ([1]; 318.15 K, x1 = 0.7904): 0.175 ± 0.00311 kcal/mol | excess molar enthalpy ([1]; 318.15 K, x1 = 0.868): 0.121 ± 0.00237 kcal/mol | excess molar enthalpy ([1]; 318.15 K, x1 = 0.9412): 0.0645 ± 0.00158 kcal/mol | mass density ([2]; 291.15 K, x1 = 0.0445): 669.6 ± 2 kg/m3 | mass density ([2]; 291.15 K, x1 = 0.09): 678.6 ± 2 kg/m3 | mass density ([2]; 291.15 K, x1 = 0.1461): 689.8 ± 2 kg/m3 | mass density ([2]; 291.15 K, x1 = 0.1928): 699.5 ± 2 kg/m3 | mass density ([2]; 291.15 K, x1 = 0.249): 711.4 ± 2 kg/m3 | mass density ([2]; 291.15 K, x1 = 0.3018): 722.7 ± 2 kg/m3 | mass density ([2]; 291.15 K, x1 = 0.4025): 745.2 ± 1.9 kg/m3 | mass density ([2]; 291.15 K, x1 = 0.5021): 768.3 ± 1.9 kg/m3 | mass density ([2]; 291.15 K, x1 = 0.5957): 790.7 ± 2 kg/m3 | mass density ([2]; 291.15 K, x1 = 0.6963): 815.7 ± 2 kg/m3 | mass density ([2]; 291.15 K, x1 = 0.7541): 830.4 ± 2.1 kg/m3 | mass density ([2]; 291.15 K, x1 = 0.802): 842.7 ± 2.1 kg/m3 | mass density ([2]; 291.15 K, x1 = 0.8532): 856.1 ± 2.2 kg/m3 | mass density ([2]; 291.15 K, x1 = 0.8987): 868.2 ± 2.2 kg/m3 | mass density ([2]; 291.15 K, x1 = 0.9575): 884.3 ± 2.3 kg/m3 | mass density ([2]; 291.15 K, x1 = 1): 896 ± 2.4 kg/m3 | mass density ([2]; 298.15 K, x1 = 0.0729): 669.39 ± 2 kg/m3 | mass density ([2]; 298.15 K, x1 = 0.1321): 681.03 ± 2 kg/m3 | mass density ([2]; 298.15 K, x1 = 0.1967): 694.2 ± 2 kg/m3 | mass density ([2]; 298.15 K, x1 = 0.2658): 708.76 ± 2 kg/m3 | mass density ([2]; 298.15 K, x1 = 0.336): 723.94 ± 2 kg/m3 | mass density ([2]; 298.15 K, x1 = 0.3698): 731.4 ± 2 kg/m3 | mass density ([2]; 298.15 K, x1 = 0.4886): 758.31 ± 2 kg/m3 | mass density ([2]; 298.15 K, x1 = 0.5876): 781.81 ± 2 kg/m3 | mass density ([2]; 298.15 K, x1 = 0.6855): 805.81 ± 2 kg/m3 | mass density ([2]; 298.15 K, x1 = 0.7677): 826.55 ± 2.1 kg/m3 | mass density ([2]; 298.15 K, x1 = 0.8136): 838.26 ± 2.1 kg/m3 | mass density ([2]; 298.15 K, x1 = 0.8574): 849.77 ± 2.2 kg/m3 | mass density ([2]; 298.15 K, x1 = 0.8986): 860.63 ± 2.2 kg/m3 | mass density ([2]; 298.15 K, x1 = 0.9227): 867.09 ± 2.3 kg/m3 | mass density ([2]; 298.15 K, x1 = 0.9714): 880.08 ± 2.3 kg/m3 | mass density ([2]; 298.15 K, x1 = 1): 888.66 ± 2.4 kg/m3 | mass density ([2]; 308.15 K, x1 = 0.047): 654.6 ± 2.1 kg/m3 | mass density ([2]; 308.15 K, x1 = 0.1095): 666.7 ± 2.1 kg/m3 | mass density ([2]; 308.15 K, x1 = 0.1485): 674.6 ± 2.1 kg/m3 | mass density ([2]; 308.15 K, x1 = 0.2005): 685.2 ± 2 kg/m3 | mass density ([2]; 308.15 K, x1 = 0.2579): 697.2 ± 2 kg/m3 | mass density ([2]; 308.15 K, x1 = 0.2981): 705.7 ± 2 kg/m3 | mass density ([2]; 308.15 K, x1 = 0.4033): 728.8 ± 2 kg/m3 | mass density ([2]; 308.15 K, x1 = 0.5098): 753.1 ± 2 kg/m3 | mass density ([2]; 308.15 K, x1 = 0.6081): 776.4 ± 2 kg/m3 | mass density ([2]; 308.15 K, x1 = 0.7112): 801.8 ± 2.1 kg/m3 | mass density ([2]; 308.15 K, x1 = 0.7576): 813.5 ± 2.1 kg/m3 | mass density ([2]; 308.15 K, x1 = 0.8073): 826.3 ± 2.2 kg/m3 | mass density ([2]; 308.15 K, x1 = 0.8511): 837.7 ± 2.2 kg/m3 | mass density ([2]; 308.15 K, x1 = 0.9081): 852.9 ± 2.3 kg/m3 | mass density ([2]; 308.15 K, x1 = 0.9598): 867.3 ± 2.3 kg/m3 | mass density ([2]; 308.15 K, x1 = 1): 878.24 ± 2.4 kg/m3 | mass density ([2]; 318.15 K, x1 = 0.0493): 645.6 ± 2.1 kg/m3 | mass density ([2]; 318.15 K, x1 = 0.0857): 652.7 ± 2.1 kg/m3 | mass density ([2]; 318.15 K, x1 = 0.1192): 659.1 ± 2.1 kg/m3 | mass density ([2]; 318.15 K, x1 = 0.1589): 666.9 ± 2.1 kg/m3 | mass density ([2]; 318.15 K, x1 = 0.1975): 674.7 ± 2.1 kg/m3 | mass density ([2]; 318.15 K, x1 = 0.2452): 684.5 ± 2.1 kg/m3 | mass density ([2]; 318.15 K, x1 = 0.3006): 696.2 ± 2.1 kg/m3 | mass density ([2]; 318.15 K, x1 = 0.4015): 718 ± 2 kg/m3 | mass density ([2]; 318.15 K, x1 = 0.495): 739.2 ± 2 kg/m3 | mass density ([2]; 318.15 K, x1 = 0.5929): 762.2 ± 2.1 kg/m3 | mass density ([2]; 318.15 K, x1 = 0.705): 789.5 ± 2.1 kg/m3 | mass density ([2]; 318.15 K, x1 = 0.746): 799.7 ± 2.1 kg/m3 | mass density ([2]; 318.15 K, x1 = 0.8134): 817.05 ± 2.2 kg/m3 | mass density ([2]; 318.15 K, x1 = 0.9067): 841.5 ± 2.3 kg/m3 | mass density ([2]; 318.15 K, x1 = 0.9647): 857.1 ± 2.4 kg/m3 | mass density ([2]; 318.15 K, x1 = 1): 867.21 ± 2.4 kg/m3
